The source made the active and inactive calls. The rule behind the calls is not given here.
What was measured:
[1] = molecular target: T1, Peroxisome proliferator-activated receptor gamma (Homo sapiens, UniProt P37231); test: Displacement of [3H]2AD-5075 from GST-tagged human PPARgamma receptor expressed in Escherichia coli BL21
T1 sequence (P37231 whole entry): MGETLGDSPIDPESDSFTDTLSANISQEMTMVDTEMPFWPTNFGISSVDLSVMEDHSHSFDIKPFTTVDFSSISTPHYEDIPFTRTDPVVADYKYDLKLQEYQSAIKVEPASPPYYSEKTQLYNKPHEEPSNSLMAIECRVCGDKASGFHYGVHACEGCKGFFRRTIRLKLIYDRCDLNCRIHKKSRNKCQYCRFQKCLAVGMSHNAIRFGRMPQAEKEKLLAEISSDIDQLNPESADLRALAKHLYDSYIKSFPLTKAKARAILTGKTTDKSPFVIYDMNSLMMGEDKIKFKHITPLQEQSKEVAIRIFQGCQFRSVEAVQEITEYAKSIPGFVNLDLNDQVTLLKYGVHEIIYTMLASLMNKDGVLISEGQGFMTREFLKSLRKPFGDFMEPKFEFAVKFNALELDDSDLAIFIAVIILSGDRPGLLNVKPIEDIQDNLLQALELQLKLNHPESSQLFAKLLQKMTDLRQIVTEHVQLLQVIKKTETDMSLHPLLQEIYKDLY

[2] = molecular target: T1, Peroxisome proliferator-activated receptor gamma; test: Agonist activity at human PPARgamma receptor expressed in african green monkey COS cells after 48 hrs by GAL4 transactivation assay; format: functional, cell-based
[3] = molecular target: T2, Peroxisome proliferator-activated receptor delta (Homo sapiens, UniProt Q03181); test: Binding affinity to PPARdelta
T2 sequence (Q03181 whole entry): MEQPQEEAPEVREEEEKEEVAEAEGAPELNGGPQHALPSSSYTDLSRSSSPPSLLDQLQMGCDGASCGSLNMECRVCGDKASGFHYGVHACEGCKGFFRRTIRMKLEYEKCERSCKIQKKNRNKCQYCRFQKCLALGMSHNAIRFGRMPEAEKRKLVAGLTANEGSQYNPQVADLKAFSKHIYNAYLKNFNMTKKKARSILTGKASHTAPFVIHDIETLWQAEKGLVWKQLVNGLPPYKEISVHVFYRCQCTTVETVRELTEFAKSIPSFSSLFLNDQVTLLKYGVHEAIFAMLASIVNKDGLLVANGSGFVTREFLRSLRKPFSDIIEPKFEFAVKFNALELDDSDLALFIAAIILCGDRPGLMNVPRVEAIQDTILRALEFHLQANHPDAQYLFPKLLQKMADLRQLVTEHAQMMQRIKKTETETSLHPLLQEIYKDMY

[4] = molecular target: T3, Peroxisome proliferator-activated receptor alpha (Homo sapiens, UniProt Q07869); test: (§1) Binding affinity to human PPARalpha
T3 sequence (Q07869 whole entry): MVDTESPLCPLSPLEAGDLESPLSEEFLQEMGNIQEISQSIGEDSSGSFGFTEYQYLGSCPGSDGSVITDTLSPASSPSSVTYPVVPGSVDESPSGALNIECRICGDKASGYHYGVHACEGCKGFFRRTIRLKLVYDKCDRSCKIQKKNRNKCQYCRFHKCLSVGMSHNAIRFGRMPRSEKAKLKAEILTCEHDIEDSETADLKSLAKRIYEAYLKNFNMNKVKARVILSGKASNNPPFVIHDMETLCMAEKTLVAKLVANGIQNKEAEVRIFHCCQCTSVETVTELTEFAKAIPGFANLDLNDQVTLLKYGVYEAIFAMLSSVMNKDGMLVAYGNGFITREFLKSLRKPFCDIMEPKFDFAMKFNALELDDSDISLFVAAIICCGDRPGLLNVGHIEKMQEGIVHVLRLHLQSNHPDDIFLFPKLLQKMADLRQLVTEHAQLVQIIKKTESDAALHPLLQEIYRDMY

[5] = tested on: Mus musculus; test: Antiglycemic activity in db/db mouse assessed as glucose correction at 10 mg/kg, po administered daily for 11 days; format: functional
[6] = molecular target: Peroxisome proliferator-activated receptor alpha (Homo sapiens) (UniProt Q07869); test: as §1
[7] = molecular target: T4, Peroxisome proliferator-activated receptor alpha (Mus musculus) (UniProt P23204); test: Binding affinity to mouse PPARalpha
T4 sequence (whole entry): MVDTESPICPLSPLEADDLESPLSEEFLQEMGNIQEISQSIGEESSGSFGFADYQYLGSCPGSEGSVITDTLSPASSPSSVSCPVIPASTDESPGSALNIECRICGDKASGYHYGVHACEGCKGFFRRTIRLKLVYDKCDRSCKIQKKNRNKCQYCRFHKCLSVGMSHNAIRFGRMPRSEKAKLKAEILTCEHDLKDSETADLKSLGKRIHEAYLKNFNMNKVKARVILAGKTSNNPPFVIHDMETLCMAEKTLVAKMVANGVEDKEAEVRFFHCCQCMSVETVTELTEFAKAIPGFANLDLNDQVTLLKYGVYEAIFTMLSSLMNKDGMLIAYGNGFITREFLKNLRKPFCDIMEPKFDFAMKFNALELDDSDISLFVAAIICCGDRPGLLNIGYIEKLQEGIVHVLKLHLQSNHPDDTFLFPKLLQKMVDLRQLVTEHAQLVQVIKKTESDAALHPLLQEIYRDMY

[8] = Bioavailability in Sprague-Dawley rat at 0.5 mg, iv and 2.0 mg, po; format: ADME, organism-based; settings: in vivo
[9] = Half life in Sprague-Dawley rat at 0.5 mg, iv and 2.0 mg, po; format: ADME, organism-based; settings: in vivo
[10] = molecular target: Cytochrome P450 2C9 (Homo sapiens, UniProt P11712); test: Inhibition of CYP2C9; format: ADME
Sequence of Cytochrome P450 2C9 (P11712 whole entry): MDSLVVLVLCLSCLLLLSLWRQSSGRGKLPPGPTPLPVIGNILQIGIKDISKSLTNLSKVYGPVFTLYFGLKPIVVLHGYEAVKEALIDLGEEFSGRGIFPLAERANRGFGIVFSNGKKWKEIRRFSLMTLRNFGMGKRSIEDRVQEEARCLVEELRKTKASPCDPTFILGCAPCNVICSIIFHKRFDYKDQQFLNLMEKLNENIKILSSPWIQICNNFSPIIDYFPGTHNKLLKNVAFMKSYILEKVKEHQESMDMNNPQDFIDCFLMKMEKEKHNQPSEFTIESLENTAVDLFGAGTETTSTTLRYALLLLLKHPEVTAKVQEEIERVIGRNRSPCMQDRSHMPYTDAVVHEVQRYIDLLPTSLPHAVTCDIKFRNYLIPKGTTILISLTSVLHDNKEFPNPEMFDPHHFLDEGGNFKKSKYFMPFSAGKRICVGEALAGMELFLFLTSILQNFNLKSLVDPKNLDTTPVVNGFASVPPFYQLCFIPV

[11] = Clearance in Sprague-Dawley rat at 0.5 mg, iv and 2.0 mg, po; format: ADME, organism-based; settings: in vivo
[12] = tested on: Mus musculus; test: Antiglycemic activity in db/db mouse assessed as glucose correction at 30 mg/kg, po administered daily for 11 days; format: functional
[13] = tested on: Mus musculus; test: Antiglycemic activity in db/db mouse assessed as glucose correction at 50 mg/kg, po administered daily for 11 days; format: functional
[14] = molecular target: Cytochrome P450 3A4 (Homo sapiens, UniProt P08684); test: Inhibition of CYP3A4; format: ADME
Sequence of Cytochrome P450 3A4 (P08684 whole entry): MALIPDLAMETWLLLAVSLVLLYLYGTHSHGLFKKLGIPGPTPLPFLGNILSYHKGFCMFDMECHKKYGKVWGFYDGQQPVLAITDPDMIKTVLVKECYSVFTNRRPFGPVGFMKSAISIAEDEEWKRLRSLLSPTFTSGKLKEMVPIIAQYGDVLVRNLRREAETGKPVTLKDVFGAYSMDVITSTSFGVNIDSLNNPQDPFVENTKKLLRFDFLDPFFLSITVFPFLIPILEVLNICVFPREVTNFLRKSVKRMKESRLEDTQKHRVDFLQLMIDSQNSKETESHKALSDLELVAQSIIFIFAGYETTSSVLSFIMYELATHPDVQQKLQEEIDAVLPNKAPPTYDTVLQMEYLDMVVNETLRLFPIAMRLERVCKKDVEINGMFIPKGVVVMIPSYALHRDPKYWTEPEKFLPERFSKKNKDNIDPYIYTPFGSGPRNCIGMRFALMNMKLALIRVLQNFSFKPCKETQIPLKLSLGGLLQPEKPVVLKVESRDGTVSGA

[15] = tested on: Mus musculus; test: Antiglycemic activity in db/db mouse assessed as glucose correction at 20 mg/kg, po administered daily for 11 days; format: functional
[16] = molecular target: Thromboxane A2 receptor (Homo sapiens) (UniProt P21731); test: Inhibition of TXA2 receptor at 10 uM
Sequence of Thromboxane A2 receptor (Homo sapiens) (P21731 whole entry): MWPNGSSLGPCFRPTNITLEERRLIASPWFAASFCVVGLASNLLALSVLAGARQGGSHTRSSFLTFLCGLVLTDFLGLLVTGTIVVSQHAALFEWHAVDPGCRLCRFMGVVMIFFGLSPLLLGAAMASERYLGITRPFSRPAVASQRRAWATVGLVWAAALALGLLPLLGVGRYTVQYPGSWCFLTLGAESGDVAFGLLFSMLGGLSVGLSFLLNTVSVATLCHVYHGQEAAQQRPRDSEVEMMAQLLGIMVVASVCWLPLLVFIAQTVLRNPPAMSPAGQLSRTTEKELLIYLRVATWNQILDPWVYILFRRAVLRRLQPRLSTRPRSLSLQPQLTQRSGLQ

SMILES	IC50 [1]	EC50 [2]	IC50 [3]	IC50 [4]	Activity [5]	Activity [6]	Activity [7]	bioavailability [8]	half-life [9]	IC50 [10]	clearance [11]	Activity [12]	Activity [13]	IC50 [14]	%max [7]	Activity [15]	inhibition [16]
COc1ccc(C(=O)c2c(C)n(Cc3ccc(Cl)c(O[C@@H](C)C(=O)O)c3)c3nc(OC)ccc23)cc1	< 1 nM	1 nM	> 50000 nM	> 50000 nM	–	–	–	–	–	–	–	–	–	–	–	–	–
CN(CCOc1ccc(CC2SC(=O)NC2=O)cc1)c1ccccn1 (stereo unspecified) [ROSIGLITAZONE]	–	–	–	–	90%	–	–	–	–	–	–	–	–	–	–	–	–
COc1ccc(C(=O)c2c(C)n(Cc3ccc(F)c(O[C@@H](C)C(=O)O)c3)c3nc(OC)ccc23)cc1	1 nM	1 nM	–	–	23%	489 nM	222 nM	–	–	–	–	–	–	–	–	–	–
Cc1c(Oc2ccc(Cl)cc2)c2ccc(F)nc2n1Cc1ccc(F)c(O[C@@H](C)C(=O)O)c1	23 nM	94 nM	> 50000 nM	> 50000 nM	–	–	–	–	–	–	–	–	–	–	–	–	–
Cc1c(C(=O)c2ccc(Cl)cc2)c2ccc(OC(F)(F)F)cc2n1Cc1cccc(O[C@@H](C)C(=O)O)c1	1 nM	1 nM	–	–	–	–	–	45%	1.5 h	5600 nM	21.7 mL/min/kg	–	–	–	–	–	–
Cc1c(Oc2ccc(Cl)cc2)c2cccnc2n1Cc1cc(O[C@@H](C)C(=O)O)ccc1F	54 nM	156 nM	> 50000 nM	> 50000 nM	–	–	–	77%	1.6 h	–	22.1 mL/min/kg	–	–	–	–	–	–
Cc1c(Oc2ccc(Cl)cc2)c2ccc(F)nc2n1Cc1ccc(Cl)c(O[C@@H](C)C(=O)O)c1	3 nM	4 nM	> 50000 nM	> 50000 nM	–	–	–	47%	0.8 h	–	23 mL/min/kg	30%	–	–	–	–	–
COc1ccc(C(=O)c2c(C)n(Cc3cc(O[C@@H](C)C(=O)O)ccc3F)c3nc(OC)ccc23)cc1	2 nM	1 nM	> 50000 nM	> 50000 nM	33%	–	–	37%	1.4 h	–	7.4 mL/min/kg	35%	34%	–	–	–	–
COc1ccc(C(=O)c2c(C)n(Cc3cccc(O[C@@H](C)C(=O)O)c3)c3ncccc23)cc1	66 nM	27 nM	> 50000 nM	> 50000 nM	29%	–	–	29%	2 h	–	115 mL/min/kg	–	–	> 100000 nM	–	–	–
COc1ccc(C(=O)c2c(C)n(Cc3cc(O[C@@H](C)C(=O)O)ccc3F)c3nc(C)ccc23)cc1	4 nM	2 nM	–	–	63%	–	500 nM	105%	1.9 h	–	32 mL/min/kg	–	–	–	28%	–	–
COc1ccc(C(=O)c2c(C)n(Cc3cccc(O[C@@H](C)C(=O)O)c3)c3nc(C)ccc23)cc1	16 nM	9 nM	> 50000 nM	> 50000 nM	42%	–	–	80%	2.4 h	–	28 mL/min/kg	–	–	–	–	–	–
COc1ccc(C(=O)c2c(C)n(Cc3ccc(F)c(O[C@@H](C)C(=O)O)c3)c3ncccc23)cc1	10 nM	3 nM	> 50000 nM	> 50000 nM	–	–	–	–	–	–	–	–	–	–	–	–	–
COc1ccc(C(=O)c2c(C)n(Cc3cccc(O[C@H](C)C(=O)O)c3)c3ncccc23)cc1	726 nM	2930 nM	> 50000 nM	–	–	Active	Active	–	–	–	–	–	–	–	–	–	–
Cc1c(Oc2ccc(Cl)cc2)c2cccnc2n1Cc1ccc(F)c(O[C@@H](C)C(=O)O)c1	106 nM	140 nM	> 50000 nM	> 50000 nM	–	–	–	–	–	–	–	–	–	–	–	–	–
COc1ccc(C(=O)c2c(C)n(Cc3cc(O[C@@H](C)C(=O)O)ccc3Cl)c3nc(OC)ccc23)cc1	2 nM	2 nM	> 50000 nM	> 50000 nM	–	–	–	–	–	–	–	32%	–	–	–	–	–
COc1ccc(C(=O)c2c(C)n(Cc3cc(O[C@@H](C)C(=O)O)ccc3F)c3ncccc23)cc1	5 nM	3 nM	> 50000 nM	> 50000 nM	–	–	–	51%	1.8 h	–	31.7 mL/min/kg	–	–	–	–	44%	64%
Cc1c(Oc2ccc(Cl)cc2)c2ccc(F)nc2n1Cc1cc(O[C@@H](C)C(=O)O)ccc1Cl	15 nM	4 nM	> 50000 nM	> 50000 nM	–	–	–	–	–	–	–	–	–	–	–	–	–
Cc1c(Oc2ccc(Cl)cc2)c2cccnc2n1Cc1cc(O[C@@H](C)C(=O)O)ccc1Cl	25 nM	36 nM	> 50000 nM	> 50000 nM	–	–	–	61%	1.2 h	–	21.8 mL/min/kg	–	–	–	–	–	–
Cc1c(Oc2ccc(Cl)cc2)c2ccc(C(F)(F)F)nc2n1Cc1ccc(Cl)c(O[C@@H](C)C(=O)O)c1	22 nM	23 nM	> 50000 nM	> 50000 nM	–	–	–	61%	1.9 h	–	12.4 mL/min/kg	–	56%	–	–	18%	–
Cc1c(Oc2ccc(Cl)cc2)c2ccc(Cl)nc2n1Cc1ccc(Cl)c(O[C@@H](C)C(=O)O)c1	3 nM	4 nM	> 50000 nM	> 50000 nM	32%	–	–	56%	1.2 h	–	27 mL/min/kg	44%	–	–	–	–	–
